In patent US20260225997A1, “IONIZABLE AMINE LIPIDS” (Intellia Therapeutics, Inc., priority 2018, published 2026):
Read-outs that look alike come from different tables or passages of the source.

Columns and labels:
[1] = pKa measurement of unformulated amine lipid (fluorescence, method of Jayaraman et al.); format: physicochemical; details: 100 μM in 0.1 M phosphate buffer pH 4.5-9.0
Experimental: The pKa of each amine lipid was determined according to the method in Jayaraman, et al. (Angewandte Chemie, 2012) with the following adaptations. […] Lipid was diluted to 100 μM in 0.1 M phosphate buffer (Boston Bioproducts) where the pH ranged from 4.5-9.0. Fluorescence intensity was measured using excitation and emission wavelengths of 321 nm and 448 nm.

[2] = LNP average particle size and polydispersity by dynamic light scattering (Malvern Zetasizer); format: physicochemical; details: Table 14, Example 58: LNP, G282 1:1
Text: The LNPs have a size of about 1 to about 1,000 nm, about 10 to about 500 nm, about 20 to about 500 nm, in a sub-embodiment about 50 to about 400 nm, in a sub-embodiment about 50 to about 300 nm, in a sub-embodiment about 50 to about 200 nm, and in a sub-embodiment about 50 to about 150 nm, and in another sub-embodiment about 60 to about 120 nm. Preferably, the LNPs have a size from about 60 nm to about 100 nm. The average sizes (diameters) of the fully formed LNP, may be measured by dynamic light scattering on a Malvern Zetasizer. The LNP sample is diluted in phosphate buffered saline (PBS) so that the count rate is approximately 200-400 kcps. The data is presented as a weighted average of the intensity measure.
The LNPs disclosed herein have a size (e.g. Z-average diameter) of about 1 to about 250 nm. In some embodiments, the LNPs have a size of about 10 to about 200 nm. In further embodiments, the LNPs have a size of about 20 to about 150 nm. In some embodiments, the LNPs have a size of about 50 to about 150 nm. In some embodiments, the LNPs have a size of about 50 to about 100 nm. In some embodiments, the LNPs have a size of about 50 to about 120 nm. In some embodiments, the LNPs have a size of about 60 to about 100 nm. In some embodiments, the LNPs have a size of about 75 to about 150 nm. In some embodiments, the LNPs have a size of about 75 to about 120 nm. In some embodiments, the LNPs have a size of about 75 to about 100 nm. Unless indicated otherwise, all sizes referred to herein are the average sizes (diameters) of the fully formed nanoparticles, as measured by dynamic light scattering on a Malvern Zetasizer. The nanoparticle sample is diluted in phosphate buffered saline (PBS) so that the count rate is approximately 200-400 kcps. The data is presented as a weighted-average of the intensity measure (Z-average diameter).
Dynamic Light Scattering (“DLS”) is used to characterize the polydispersity index (“pdi”) and size of the LNPs of the present disclosure. DLS measures the scattering of light that results from subjecting a sample to a light source. PDI, as determined from DLS measurements, represents the distribution of particle size (around the mean particle size) in a population, with a perfectly uniform population having a PDI of zero.
LNP compositions are analyzed for average particle size, polydispersity index (pdi), total RNA content, encapsulation efficiency of RNA, and zeta potential. LNP compositions may be further characterized by lipid analysis, AF4-MALS, NTA, and/or cryo-EM. Average particle size and polydispersity are measured by dynamic light scattering (DLS) using a Malvern Zetasizer DLS instrument. LNP samples were diluted with PBS buffer prior to being measured by DLS. Z-average diameter which is an intensity-based measurement of average particle size was reported along with number average diameter and pdi. A Malvern Zetasizer instrument is also used to measure the zeta potential of the LNP. Samples are diluted 1:17 (50 μL into 800 μL) in 0.1×PBS, pH 7.4 prior to measurement.

[3] = RNA encapsulation efficiency of LNP (Ribogreen fluorescence assay); format: physicochemical; details: Table 14, Example 58: LNP, G282 (TTR) 1:1 w/w, N:P 6.0
Experimental: A fluorescence-based assay (Ribogreen®, ThermoFisher Scientific) is used to determine total RNA concentration and free RNA. Encapsulation efficiency is calculated as (Total RNA−Free RNA)/Total RNA. LNP samples are diluted appropriately with 1× TE buffer containing 0.2% Triton-X 100 to determine total RNA or 1× TE buffer to determine free RNA. Standard curves are prepared by utilizing the starting RNA solution used to make the compositions and diluted in 1× TE buffer+/−0.2% Triton-X 100. Diluted RiboGreen® dye (according to the manufacturer's instructions) is then added to each of the standards and samples and allowed to incubate for approximately 10 minutes at room temperature, in the absence of light. A SpectraMax M5 Microplate Reader (Molecular Devices) is used to read the samples with excitation, auto cutoff and emission wavelengths set to 488 nm, 515 nm, and 525 nm respectively. Total RNA and free RNA are determined from the appropriate standard curves.
Encapsulation efficiency is calculated as (Total RNA−Free RNA)/Total RNA. The same procedure may be used for determining the encapsulation efficiency of a DNA-based cargo component. For single-strand DNA Oligreen Dye may be used, and for double-strand DNA, Picogreen Dye.

TTR [4] = assay: TTR editing in mouse liver by NGS after i.v. LNP delivery of Cas9 mRNA and sgRNA; format: in vivo; details: CD-1 female mice
Experimental: Preparations of various LNP compositions were prepared with amine lipids. In assays for percent liver editing in mice, Cas9 mRNA and chemically modified sgRNA were formulated in LNPs, at either a 1:1 w/w ratio or a 1:2 w/w ratio. LNPs are formulated with a composition of a given ionizable lipid (e.g. an amine lipid), DSPC, cholesterol, and PEG-2k-DMG, with a 6.0 N:P ratio.
(§1) CD-1 female mice, ranging from 6-10 weeks of age were used in each study. Animals were weighed and grouped according to body weight for preparing dosing solutions based on group average weight. LNPs were dosed via the lateral tail vein in a volume of 0.2 mL per animal (approximately 10 mL per kilogram body weight). The animals were periodically observed post dose for adverse effects for at least 24 hours post dose. Animals were euthanized at 6 or 7 days by exsanguination via cardiac puncture under isoflurane anesthesia. Blood was collected into serum separator tubes or into tubes containing buffered sodium citrate for plasma as described herein. For studies involving in vivo editing, liver tissue was collected from each animal for DNA extraction and analysis.
Cohorts of mice were measured for liver editing by Next-Generation Sequencing (NGS).
In brief, to quantitatively determine the efficiency of editing at the target location in the genome, genomic DNA was isolated and deep sequencing was utilized to identify the presence of insertions and deletions introduced by gene editing.
PCR primers were designed around the target site (e.g., B2M), and the genomic area of interest was amplified. Additional PCR was performed according to the manufacturer's protocols (Illumina) to add the necessary chemistry for sequencing. The amplicons were sequenced on an Illumina MiSeq instrument. The reads were aligned to the […] after eliminating those having low quality scores. The resulting files containing the reads were mapped to the reference genome (BAM files), where reads that overlapped the target region of interest were selected and the number of wild type reads versus the number of reads which contain an insertion, substitution, or deletion was calculated.
The editing percentage (e.g., the “editing efficiency” or “percent editing”) is defined as the total number of sequence reads with insertions or deletions over the total number of sequence reads, including wild type.
CD-1 female mice were dosed i.v. at 0.1 mpk or 0.3 mpk. At 6 days post-dose, animals were sacrificed. For animals dosed with G282 targeting TTR, blood and the liver were collected and serum TTR and editing were measured. For animals dosed with G650 targeting B2M, liver was collected and editing was measured.

TTR [5] = assay: Transthyretin (TTR) ELISA analysis of mouse serum after LNP dosing; format: in vivo; details: for response vs control in vivo at 0.1 mg/kg / response vs control in vivo at 0.03 mg/kg / inhibition in vivo at 0.03 mg/kg: Mus musculus, iv; for response vs control in vivo at 0.1 mg/kg / response vs control in vivo at 0.03 mg/kg: read-out: Serum TTR % TSS; for inhibition in vivo at 0.03 mg/kg: read-out: Serum TTR (% KD)
Experimental: as §1
CD-1 female mice were dosed i.v. at 0.1 mpk or 0.3 mpk. […] For animals dosed with G282 targeting TTR, blood and the liver were collected and serum TTR and editing were measured. For animals dosed with G650 targeting B2M, liver was collected and editing was measured.
Blood was collected and the serum was isolated as indicated. The total mouse TTR serum levels were determined using a Mouse Prealbumin (Transthyretin) ELISA Kit (Aviva Systems Biology, Cat. OKIA00111). Briefly, sera were serial diluted with kit sample diluent to a final dilution of 10,000-fold for 0.1 mpk dose and 2,500-fold for 0.3 mpk. This diluted sample was then added to the ELISA plates and the assay was then carried out according to directions.

[6] = Example 58: 0.1 mpk i.v., 6 days post-dose, G282 1:1
[7] = 144 h, Example 58: 0.1 mpk i.v., 6 days post-dose, G282 1:1
[8] = Example 60: 0.1 mpk i.v., 6 days post-dose, G502 1:2
[9] = Example 63: 0.03 mpk i.v., 7 days post-dose, G282 1:1
[10] = Example 63: 0.1 mpk i.v., 7 days post-dose, G282 1:1
[11] = 168 h, Example 63: 0.03 mpk i.v., 7 days post-dose, G282 1:1
[12] = 168 h, Example 63: 0.1 mpk i.v., 7 days post-dose, G282 1:1
[13] = Example 64: Dose 0.03 mpk (table) i.v., 7 days post-dose, G282 1:1
[14] = 168 h, Example 64: Dose 0.03 mpk (table) i.v., 7 days post-dose, G282 1:1

Row | pKa [1] | Compound | Editing Mean % Indel (TTR [4]; [9]) [%] | Editing Mean % Indel (TTR [4]; [10]) [%] | Serum TTR (TTR [5]; [9]) [µg/mL] | Serum TTR (TTR [5]; [10]) [µg/mL] | response vs control in vivo at 0.03 mg/kg (TTR [5]; [11]) [%] | response vs control in vivo at 0.1 mg/kg (TTR [5]; [12]) [%] | also measured
1 | 6.35 | CCCCCCCCOC(CCCCCCCN(CCO)CCCCCCCCCC(=O)OCCCCCCC)OCCCCCCCC [Compound 11, heptyl 10-((8,8-bis(octyloxy)octyl)(2-hydroxyethyl)amino)decanoate] | – | – | – | – | – | – | Num Ave Size (nm) [2]: 54.58 nm; PDI [2]: 0.137; Z-Ave Size (nm) [2]: 89.3 nm; Encapsulation (%) [3]: 86%; Editing Mean % Indel (TTR [4]; [6]): 29.4%; Serum TTR (TTR [5]; [6]): 553 µg/mL; response vs control in vivo at 0.1 mg/kg (TTR [5]; [7]): 56%
2 | 6.35 | CCCCCCCCCCCOC(=O)CCCCCN(CCO)CCCCCCCC(OCCCCCCCC)OCCCCCCCC [Compound 13, undecyl 6-((8,8-bis(octyloxy)octyl)(2-hydroxyethyl)amino)hexanoate] | – | – | – | – | – | – | Num Ave Size (nm) [2]: 63.34 nm; PDI [2]: 0.04; Z-Ave Size (nm) [2]: 77.34 nm; Encapsulation (%) [3]: 98%; Editing Mean % Indel (TTR [4]; [6]): 22.6%; Serum TTR (TTR [5]; [6]): 703 µg/mL; response vs control in vivo at 0.1 mg/kg (TTR [5]; [7]): 71%
3 | 6.41 | CCCCCCCCOC(CCCCCCCN(CCO)CCCCCCCC(=O)OC(C)CCCCCC)OCCCCCCCC (stereo not shown) [Compound 27, octan-2-yl 8-((8,8-bis(octyloxy)octyl)(2-hydroxyethyl)amino)octanoate] | 27.86 | 57.10 | 497.99 | 197.22 | 61.7 | 24.4 | –
4 | 6.54 | CCCCCCCCOC(CCCCCCCN(CCO)CCCCCCCC(=O)OCCCCC)OCCCCCCCC [Compound 29, pentyl 8-((8,8-bis(octyloxy)octyl)(2-hydroxyethyl)amino)octanoate] | 5.76 | 15.96 | 718.48 | 660.46 | 89 | 81.8 | –

Second part, the molecule before the results:

Row | Compound | pKa [1] | Editing Mean % Indel (TTR [4]; [9]) [%] | Editing Mean % Indel (TTR [4]; [10]) [%] | Serum TTR (TTR [5]; [9]) [µg/mL] | Serum TTR (TTR [5]; [10]) [µg/mL] | response vs control in vivo at 0.03 mg/kg (TTR [5]; [11]) [%] | response vs control in vivo at 0.1 mg/kg (TTR [5]; [12]) [%] | also measured
5 | CCCCCCCCCOC(=O)CCCCCCCN(CCO)CCCCCCCC(OC(C)CCCCCC)OC(C)CCCCCC (stereo not shown) [Compound 25, nonyl 8-[8,8-bis(1-methylheptoxy)octyl-(2-hydroxyethyl)amino]octanoate] | 6.1 | – | – | – | – | – | – | Editing Mean % Indel (TTR [4]; [8]): 15.3%; Serum TTR (TTR [5]; [8]): 985 µg/mL; response vs control in vivo at 0.1 mg/kg (TTR [5]; 144 h, Example 60: 0.1 mpk i.v., 6 days post-dose, G502 1:2): 69%
6 | CCCCCCCCOC(CCCCCCCN(CCO)CCCCCCCC(=O)OC(CC)CCCC)OCCCCCCCC (stereo not shown) [Compound 30, heptan-3-yl 8-((8,8-bis(octyloxy)octyl)(2-hydroxyethyl)amino)octanoate] | 6.48 | 27.64 | 62.48 | 514.23 | 125.89 | 63.7 | 15.6 | –
7 | CCCCCCCCCOC(=O)CCCCCCCN(CCCCCCC(OCCCCCCCC)OCCCCCCCC)CCNC(C)=O [Compound 41, nonyl 8-((2-acetamidoethyl)(7,7-bis(octyloxy)heptyl)amino)octanoate] | 6.82 | – | – | – | – | – | – | Editing Mean % Indel (TTR [4]; [13]): 2.4%; Serum TTR (TTR [5]; [13]): 567.1 µg/mL; inhibition in vivo at 0.03 mg/kg (TTR [5]; [14]): 1%
8 | CCCCCCCCCOC(=O)CCCCCCCN(CCCCCCC(OCCCCCCCC)OCCCCCCCC)CCCNC(C)=O [Compound 42, nonyl 8-((3-acetamidopropyl)(7,7-bis(octyloxy)heptyl)amino)octanoate] | 7.19 | – | – | – | – | – | – | Editing Mean % Indel (TTR [4]; [13]): 9.6%; Serum TTR (TTR [5]; [13]): 571.6 µg/mL; inhibition in vivo at 0.03 mg/kg (TTR [5]; [14]): 0.2%
